Key:
[1] = Test on the solubility in a simulated body fluid; type: physicochemical; conditions: 0.01 M PBS pH 7.4, 37° C.
Protocol: Test on the Solubility in a Simulated Body Fluid
The concentration of the drug dissolved in the PBS buffered solution was determined with an HPLC-a method.

[2] = Test on the solubility in media at different pH; type: physicochemical
Protocol: Test on the Solubility in Media at Different pH
About 200 mg of solid powders of Preparation Example 10 and Preparation Example 15 were added in a 500 mL phosphate buffered solution at different pH values (50 mmol/L, pH 5.5, pH 6.5, pH 7.4, and pH 8.0) respectively, placed into a dissolution tester, kept at a constant temperature of 37° C., and paddle stirred at 50 rpm for 72 hours. Appropriate amounts of the suspension were taken out at 15 min, 30 min, 45 min, 1 h, 2 h, 4 h, 6 h, 8 h, 24 h, 32 h, 48 h, and 72 h respectively, and centrifuged immediately (15000 rpm, 5 min). The supernatant was diluted with methanol by a factor of two. The concentration of the drug dissolved in the PB buffer solution was determined with an HPLC-b method.

[3] = phosphate buffer pH 5.5, 37° C., 0.25 h
[4] = phosphate buffer pH 5.5, 37° C., 0.5 h
[5] = phosphate buffer pH 5.5, 37° C., 0.75 h
[6] = phosphate buffer pH 5.5, 37° C., 1 h
[7] = phosphate buffer pH 5.5, 37° C., 2 h
[8] = phosphate buffer pH 5.5, 37° C., 4 h
[9] = phosphate buffer pH 5.5, 37° C., 6 h
[10] = phosphate buffer pH 5.5, 37° C., 8 h
[11] = phosphate buffer pH 5.5, 37° C., 24 h
[12] = phosphate buffer pH 5.5, 37° C., 32 h
[13] = phosphate buffer pH 5.5, 37° C., 48 h
[14] = phosphate buffer pH 5.5, 37° C., 72 h
[15] = phosphate buffer pH 6.5, 37° C., 0.25 h
[16] = phosphate buffer pH 6.5, 37° C., 0.5 h
[17] = phosphate buffer pH 6.5, 37° C., 0.75 h
[18] = phosphate buffer pH 6.5, 37° C., 1 h
[19] = phosphate buffer pH 6.5, 37° C., 2 h
[20] = phosphate buffer pH 6.5, 37° C., 4 h
[21] = phosphate buffer pH 6.5, 37° C., 6 h
[22] = phosphate buffer pH 6.5, 37° C., 8 h
[23] = phosphate buffer pH 6.5, 37° C., 24 h
[24] = phosphate buffer pH 6.5, 37° C., 32 h
[25] = phosphate buffer pH 6.5, 37° C., 48 h
[26] = phosphate buffer pH 6.5, 37° C., 72 h
[27] = phosphate buffer pH 7.4, 37° C., 0.25 h
[28] = phosphate buffer pH 7.4, 37° C., 0.5 h
[29] = phosphate buffer pH 7.4, 37° C., 0.75 h
[30] = phosphate buffer pH 7.4, 37° C., 1 h
[31] = phosphate buffer pH 7.4, 37° C., 2 h
[32] = phosphate buffer pH 7.4, 37° C., 4 h
[33] = phosphate buffer pH 7.4, 37° C., 6 h
[34] = phosphate buffer pH 7.4, 37° C., 8 h
[35] = phosphate buffer pH 7.4, 37° C., 24 h
[36] = phosphate buffer pH 7.4, 37° C., 32 h
[37] = phosphate buffer pH 7.4, 37° C., 48 h
[38] = phosphate buffer pH 7.4, 37° C., 72 h
[39] = phosphate buffer pH 8.0, 37° C., 0.25 h
[40] = phosphate buffer pH 8.0, 37° C., 0.5 h
[41] = phosphate buffer pH 8.0, 37° C., 0.75 h
[42] = phosphate buffer pH 8.0, 37° C., 1 h
[43] = phosphate buffer pH 8.0, 37° C., 2 h
[44] = phosphate buffer pH 8.0, 37° C., 4 h
[45] = phosphate buffer pH 8.0, 37° C., 6 h
[46] = phosphate buffer pH 8.0, 37° C., 8 h
[47] = phosphate buffer pH 8.0, 37° C., 24 h
[48] = phosphate buffer pH 8.0, 37° C., 32 h
[49] = phosphate buffer pH 8.0, 37° C., 48 h
[50] = phosphate buffer pH 8.0, 37° C., 72 h

CCCCN1CCCCC1C(=O)Nc1c(C)cccc1C.O=C(O)c1cc2ccccc2c(Cc2c(O)c(C(=O)O)cc3ccccc23)c1O [Preparation Example 10, mono(bupivacaine) pamoate]
Compound concentration: Bupivacaine ([1]; 5 min): 722 µM
Compound concentration: Pamoic acid ([1]; 5 min): 742.7 µM
Compound concentration: Bupivacaine ([1]; 15 min): 833 µM
Compound concentration: Pamoic acid ([1]; 15 min): 857.9 µM
Compound concentration: Bupivacaine ([1]; 30 min): 885.9 µM
Compound concentration: Pamoic acid ([1]; 30 min): 916.8 µM
Compound concentration: Bupivacaine ([1]; 1 h): 938.7 µM
Compound concentration: Pamoic acid ([1]; 1 h): 981.6 µM
Compound concentration: Bupivacaine ([1]; 2 h): 909.7 µM
Compound concentration: Pamoic acid ([1]; 2 h): 995.7 µM
Compound concentration: Bupivacaine ([1]; 6 h): 83.3 µM
Compound concentration: Pamoic acid ([1]; 6 h): 1867.3 µM
Compound concentration: Bupivacaine ([1]; 24 h): 67 µM
Compound concentration: Pamoic acid ([1]; 24 h): 2560.5 µM
molar ratio of the solubility (bupivacaine to pamoic acid) ([2]; media at pH 5.5, pH 7.4 and pH 8.0, remained for 48 hours or less): around 1.0
time for which the molar ratio of the solubility remained around 1.0 ([2]; medium at pH 6.5, decreased after a longer time): 8 h
Molar concentration of Bupivacaine [2, 3]: 0.047 mmol/L
Molar concentration of Pamoic acid [2, 3]: 0.046 mmol/L
Molar concentration of Bupivacaine [2, 4]: 0.078 mmol/L
Molar concentration of Pamoic acid [2, 4]: 0.076 mmol/L
Molar concentration of Bupivacaine [2, 5]: 0.106 mmol/L
Molar concentration of Pamoic acid [2, 5]: 0.103 mmol/L
Molar concentration of Bupivacaine [2, 6]: 0.136 mmol/L
Molar concentration of Pamoic acid [2, 6]: 0.132 mmol/L
Molar concentration of Bupivacaine [2, 7]: 0.188 mmol/L
Molar concentration of Pamoic acid [2, 7]: 0.182 mmol/L
Molar concentration of Bupivacaine [2, 8]: 0.222 mmol/L
Molar concentration of Pamoic acid [2, 8]: 0.218 mmol/L
Molar concentration of Bupivacaine [2, 9]: 0.234 mmol/L
Molar concentration of Pamoic acid [2, 9]: 0.232 mmol/L
Molar concentration of Bupivacaine [2, 10]: 0.234 mmol/L
Molar concentration of Pamoic acid [2, 10]: 0.23 mmol/L
Molar concentration of Bupivacaine [2, 11]: 0.246 mmol/L
Molar concentration of Pamoic acid [2, 11]: 0.244 mmol/L
Molar concentration of Bupivacaine [2, 12]: 0.248 mmol/L
Molar concentration of Pamoic acid [2, 12]: 0.248 mmol/L
Molar concentration of Bupivacaine [2, 13]: 0.198 mmol/L
Molar concentration of Pamoic acid [2, 13]: 0.236 mmol/L
Molar concentration of Bupivacaine [2, 14]: 0.142 mmol/L
Molar concentration of Pamoic acid [2, 14]: 0.224 mmol/L
Molar concentration of Bupivacaine [2, 15]: 0.05 mmol/L
Molar concentration of Pamoic acid [2, 15]: 0.053 mmol/L
Molar concentration of Bupivacaine [2, 16]: 0.084 mmol/L
Molar concentration of Pamoic acid [2, 16]: 0.09 mmol/L
Molar concentration of Bupivacaine [2, 17]: 0.115 mmol/L
Molar concentration of Pamoic acid [2, 17]: 0.124 mmol/L
Molar concentration of Bupivacaine [2, 18]: 0.148 mmol/L
Molar concentration of Pamoic acid [2, 18]: 0.160 mmol/L
Molar concentration of Bupivacaine [2, 19]: 0.274 mmol/L
Molar concentration of Pamoic acid [2, 19]: 0.296 mmol/L
Molar concentration of Bupivacaine [2, 20]: 0.384 mmol/L
Molar concentration of Pamoic acid [2, 20]: 0.414 mmol/L
Molar concentration of Bupivacaine [2, 21]: 0.396 mmol/L
Molar concentration of Pamoic acid [2, 21]: 0.424 mmol/L
Molar concentration of Bupivacaine [2, 22]: 0.404 mmol/L
Molar concentration of Pamoic acid [2, 22]: 0.448 mmol/L
Molar concentration of Bupivacaine [2, 23]: 0.186 mmol/L
Molar concentration of Pamoic acid [2, 23]: 0.440 mmol/L
Molar concentration of Bupivacaine [2, 24]: 0.15 mmol/L
Molar concentration of Pamoic acid [2, 24]: 0.426 mmol/L
Molar concentration of Bupivacaine [2, 25]: 0.14 mmol/L
Molar concentration of Pamoic acid [2, 25]: 0.428 mmol/L
Molar concentration of Bupivacaine [2, 26]: 0.128 mmol/L
Molar concentration of Pamoic acid [2, 26]: 0.416 mmol/L
Molar concentration of Bupivacaine [2, 27]: 0.0555 mmol/L
Molar concentration of Pamoic acid [2, 27]: 0.0605 mmol/L
Molar concentration of Bupivacaine [2, 28]: 0.095 mmol/L
Molar concentration of Pamoic acid [2, 28]: 0.105 mmol/L
Molar concentration of Bupivacaine [2, 29]: 0.1315 mmol/L
Molar concentration of Pamoic acid [2, 29]: 0.1465 mmol/L
Molar concentration of Bupivacaine [2, 30]: 0.170 mmol/L
Molar concentration of Pamoic acid [2, 30]: 0.190 mmol/L
Molar concentration of Bupivacaine [2, 31]: 0.288 mmol/L
Molar concentration of Pamoic acid [2, 31]: 0.320 mmol/L
Molar concentration of Bupivacaine [2, 32]: 0.386 mmol/L
Molar concentration of Pamoic acid [2, 32]: 0.430 mmol/L
Molar concentration of Bupivacaine [2, 33]: 0.428 mmol/L
Molar concentration of Pamoic acid [2, 33]: 0.476 mmol/L
Molar concentration of Bupivacaine [2, 34]: 0.440 mmol/L
Molar concentration of Pamoic acid [2, 34]: 0.486 mmol/L
Molar concentration of Bupivacaine [2, 35]: 0.426 mmol/L
Molar concentration of Pamoic acid [2, 35]: 0.550 mmol/L
Molar concentration of Bupivacaine [2, 36]: 0.402 mmol/L
Molar concentration of Pamoic acid [2, 36]: 0.592 mmol/L
Molar concentration of Bupivacaine [2, 37]: 0.204 mmol/L
Molar concentration of Pamoic acid [2, 37]: 0.498 mmol/L
Molar concentration of Bupivacaine [2, 38]: 0.166 mmol/L
Molar concentration of Pamoic acid [2, 38]: 0.458 mmol/L
Molar concentration of Bupivacaine [2, 39]: 0.0575 mmol/L
Molar concentration of Pamoic acid [2, 39]: 0.063 mmol/L
Molar concentration of Bupivacaine [2, 40]: 0.099 mmol/L
Molar concentration of Pamoic acid [2, 40]: 0.110 mmol/L
Molar concentration of Bupivacaine [2, 41]: 0.1375 mmol/L
Molar concentration of Pamoic acid [2, 41]: 0.154 mmol/L
Molar concentration of Bupivacaine [2, 42]: 0.178 mmol/L
Molar concentration of Pamoic acid [2, 42]: 0.200 mmol/L
Molar concentration of Bupivacaine [2, 43]: 0.308 mmol/L
Molar concentration of Pamoic acid [2, 43]: 0.344 mmol/L
Molar concentration of Bupivacaine [2, 44]: 0.416 mmol/L
Molar concentration of Pamoic acid [2, 44]: 0.468 mmol/L
Molar concentration of Bupivacaine [2, 45]: 0.494 mmol/L
Molar concentration of Pamoic acid [2, 45]: 0.554 mmol/L
Molar concentration of Bupivacaine [2, 46]: 0.558 mmol/L
Molar concentration of Pamoic acid [2, 46]: 0.624 mmol/L
Molar concentration of Bupivacaine [2, 47]: 0.610 mmol/L
Molar concentration of Pamoic acid [2, 47]: 0.688 mmol/L
Molar concentration of Bupivacaine [2, 48]: 0.622 mmol/L
Molar concentration of Pamoic acid [2, 48]: 0.702 mmol/L
Molar concentration of Bupivacaine [2, 49]: 0.592 mmol/L
Molar concentration of Pamoic acid [2, 49]: 0.694 mmol/L
Molar concentration of Bupivacaine [2, 50]: 0.44 mmol/L
Molar concentration of Pamoic acid [2, 50]: 0.7 mmol/L

CCCCN1CCCCC1C(=O)Nc1c(C)cccc1C.Cc1ccc(C(=O)OC(C(=O)O)C(OC(=O)c2ccc(C)cc2)C(=O)O)cc1 (stereo not drawn) [Preparation Example 3, mono(bupivacaine) di-p-toluoyl tartarate]
Compound concentration: Bupivacaine ([1]; 5 min): 7947.6 µM
Compound concentration: DTTA ([1]; 5 min): 7316.3 µM
Compound concentration: Bupivacaine ([1]; 15 min): 7862.6 µM
Compound concentration: DTTA ([1]; 15 min): 7244.6 µM
Compound concentration: Bupivacaine ([1]; 30 min): 7662.2 µM
Compound concentration: DTTA ([1]; 30 min): 7012.2 µM
Compound concentration: Bupivacaine ([1]; 1 h): 7519 µM
Compound concentration: DTTA ([1]; 1 h): 6900.6 µM
Compound concentration: Bupivacaine ([1]; 2 h): 7719.3 µM
Compound concentration: DTTA ([1]; 2 h): 7048.1 µM
Compound concentration: Bupivacaine ([1]; 6 h): 7883.2 µM
Compound concentration: DTTA ([1]; 6 h): 7211.7 µM
Compound concentration: Bupivacaine ([1]; 24 h): 7917.8 µM
Compound concentration: DTTA ([1]; 24 h): 7249 µM

From patent publication US11084790B2, “Insoluble complex or solvate thereof, pharmaceutical composition and use thereof” (Fruithy Holdings Limited, priority 2017, dated 2021)
